From US9067920B2, “Compounds useful for inhibiting Chk1” (Eli Lilly and Company, priority 2010, dated 2015)
Where a name gives a salt, the structure may show the parent alone.

How the values were obtained:
[1] = biological target: recombinant Chk2 protein kinase (Homo sapiens, UniProt O96017); experiment: Chk2 biochemical assay (CHK2/substrate peptide filter binding); details: 60 μM ATP, 1.4 nM Chk2 enzyme
Protocol: The effect of compounds on Chk2 biochemical activity can be determined using a CHK2/substrate peptide filter binding assay. In this assay, a synthetic peptide based on the amino acid sequence residues 206-225 of Cdc25C, is used as a phospho-acceptor substrate for recombinant Chk2 protein kinase. Using γ-^33P-ATP as the phospho-donor substrate, Chk2 transfers the radioactive γ-^33phosphate group to the synthetic peptide. The reaction is measured by capturing the peptide substrate on a cation exchange paper filter plate and scintillation counting of emitted beta particles.
The kinase reactions (40 μL reaction volumes) are performed in 96-well V-bottom polystyrene plates. Reactions are initiated with the addition of Chk2 enzyme. […]
Following Chk2 enzyme addition, the reactions are incubated at room temperature for 90 min, and then terminated with the addition of 140 μL of phosphoric acid. […] After sitting for 4 h at room temperature, the radioactivity in the plate is measured using a MicroBeta Trilux microplate scintillation counter (Perkin Elmer).
For IC50 determination, the percent inhibition for each concentration is calculated using the […] from controls run on each plate. […] Absolute IC50 values are calculated from the resulting curve. […]

HeLa cells = experiment: Doxorubicin-induced G2M checkpoint abrogation HeLa cell-based Acumen assay (pHH3); details: 125 nM doxorubicin, 7 h compound
Protocol: An inhibitor of Chk1 will disable the G2M DNA damage checkpoint in p53-minus tumor cells treated with the topoisomerase II inhibitor, doxorubicin. A measurement of G2M checkpoint abrogation is the phosphorylation of histone H3 on serine 10 that occurs after cells traverse the G2M checkpoint and enter mitosis. The following high content imaging assay can be used to measure the phosphorylation histone H3 in cells. HeLa cells are cultured in MEM Media supplemented with 10% (v/v) FBS and plated at 2000 cells per well in poly D-lysine coated clear bottom black plates, 100 μL volume per well. Plates are then incubated in a cell culture incubator for 18-24 h (37° C., 5% CO2 and 95% relative humidity), Following the initial incubation, 20 μL of MEM Media plus 10% FBS containing […] doxorubicin are added to the appropriate wells of the plates resulting in a final concentration of 125 nM. The plates are returned to the incubator for 24 h, sufficient to arrest the cells at the G2M checkpoint. The next day the cells are treated 1.0 with compounds. Compounds are solubilized at […] in 100% DMSO and then diluted to a 10× stock starting at 50 μM in MEM plus 4% (v/v) DMSO. Subsequently, serial dilutions of the compounds (1:2) are prepared over a 50 μM to 0.39 μM range. Thirteen μL of compound stock is added to the appropriate wells in the plate to produce a final DMSO concentration of 0.4% and a final compound concentration range between 5 and 0.039 μM. […] Plates are scanned with ACUMEN EXPLORER™ Laser-scanning fluorescence microplate cytometers using 488 nm excitation (TTP LABTECH LTC) to measure pHH3 and DNA content including 2N, and 4N, The pHH3 positive cells are identified by mean intensity at 519 nm from Alexa 488. […] The final readout for each population is determined by normalizing to the % of total cells producing a final assay output of % pHH3, % 2N, and % 4N. 100% activity is then determined by treating cells with the maximum concentration of an inhibitor control compound at 100 nM to determine the final % activity of each compound. […]

[2] = test system: Calu-6 lung tumor xenograft; experiment: Calu-6 tumor xenograft model, oral administration of Chk1 inhibitor; type: in vivo, nude mice; details: Calu6, gemcitabine 40 mpk ip alone
Protocol: (§1) The ability of Chk1 inhibitors to potentiate tumor killing by DNA damaging agents can be determined in vivo using the Calu-6 lung and HT-29 colon tumor xenograft efficacy models. Calu-6 lung cancer cells are cultured in growth media (MEM with Earle's Balanced Salt Solution with L-glutamine supplemented with 10% (v/v) heat inactivated FBS, 1×MEM non-essential amino acids, 1× sodium pyruvate) and HT-29 colon cancer cells (ATCC) are cultured in growth media, (McCoy's 5A medium supplemented with 10% FBS) and expanded.
(§2) Cells are harvested and washed twice with phosphate buffered saline and 5×10^6 cells (HT-29) or 1×10^6 a cells (Calu-6) in growth media (without serum) are mixed with equal volume of BD Matrigel™ matrix, then injected subcutaneously into the flank of nude mice (CD-1 nu/nu).
(§3) At about day 16 after implant (150-200 mm^3), gemcitabine is formulated fresh in saline daily and administered to animals by intraperitoneal route at 40 mg/kg dose. Twenty four hours later animals are administered Chk1 compound, in 0.2% Tween-80/0.5% methylcellulose by the oral route MD. After three days of rest, dosing was repeated for three additional cycles (Q5Dx4 with the compound of Example 3 offset+24 hours). Tumor growth inhibition (TGI) is calculated as described in the previous paragraph. Compounds within the scope of the invention are tested in this assay run substantially as above.

[3] = test system: Calu-6 lung tumor xenograft; experiment: Calu-6 tumor xenograft model, subcutaneous administration of Chk1 inhibitor; type: in vivo, nude mice; details: Calu 6, gemcitabine 60 mpk ip alone
Protocol: as §1, §2
(§4) At about day 16 after implant ([…]), gemcitabine is formulated fresh in saline daily and administered to animals by intraperitoneal route at 60 mg/kg dose. Twenty four hours later animals are administered the compound of Example 3, in 0.2% Tween-80/0.5% methylcellulose subcutaneously BID. After […], dosing is repeated for three additional cycles (Q4Dx4 with the compound of Example 3 offset+24 hours), Tumor growth inhibition (TGI) is calculated as the percent reduction in mean tumor size of a compound treated group from the mean tumor size of the vehicle-treated control group. Compounds within the scope of the invention are tested in this assay run substantially as above.

[4] = test system: HT-29 colon tumor xenograft; experiment: HT-29 tumor xenograft model, subcutaneous administration of Chk1 inhibitor; type: in vivo, nude mice; details: HT29, gemcitabine 60 mpk ip alone
Protocol: as §1, §2, §4

[5] = test system: HT-29 colon tumor xenograft; experiment: HT-29 tumor xenograft model, oral administration of Chk1 inhibitor; type: in vivo, nude mice; details: HT29, gemcitabine 40 mpk ip alone
Protocol: as §1, §2, §3

[6] = test system: HT-29 colon carcinoma cells; experiment: ECtfs (two-fold sensitization) assay, gemcitabine potentiation, MTS; type: cell-based; details: Homo sapiens, HT-29 cells
Protocol: An inhibitor of Chk1 can potentiate the anti-proliferative activity of gemcitabine (or other cytotoxics) through abrogation of the intra-S phase checkpoint, resulting in sustained and increased DNA damage. The capacity for continued tumor cell proliferation after DNA damage can be analyzed by determining the ability of cells to replicate their DNA. […] In this assay, cells are treated with a dilution series of gemcitabine, and then 22 h later with the compound of Example 3, After an additional 44 h, the relative cell number is assessed by a MTS (3-(4,5-dimethylthiazol-2-yl)-5-(3-carboxymethoxyphenyl)-2-(4-sulfophenyl)-2H-tetrazolium) dye reduction assay. The ECtfs parameter is a measure of the concentration of a Chk1 inhibitor necessary to reduce by half the (1190 concentration of gemcitabine, measured in this assay in the absence of Chk1 inhibition. HT-29 cells (obtained from ATCC), are grown in RPMI 1640 plus 10% (v/v) heat inactivated FBS, The cells are plated at 2.5×10^3 per well, in a volume of 100 μL on 96-well tissue culture plates and incubated for 24 h. Gemcitabine dilutions are prepared at 6× concentrations in McCoy's 5A medium (modified) (1×) and added to wells at 20 μper well. Gemcitabine dilutions were set up with the highest final concentration of gemcitabine being 1.0 μM and dilutions made by three-fold steps to 0.5 nM.
Chk1 Inhibitor is prepared by dilutions in DMSO to 4000× final concentration, and then diluted 666-fold into McCoy's medium to generate 6× stocks. Chk1 inhibitor dilutions proceed by 2.5-fold steps starting at 25 nM down to 0.3 nM. Twenty-two hours 1.0 after gemcitabine addition, Chk1, inhibitor is added in a volume of 24 μL to wells containing 120 μL of medium plus gemcitabine. Each gemcitabine dilution receives a single Chk1 inhibitor dilution. Control wells received DMSO, gemcitabine, or Chk1 inhibitor alone. Forty-four hours after addition of Chk1 inhibitor, 30 μL of CellTiter 96® AQueous assay reagent, is added to each well and held at room temperature for 1 hour and 45 minutes. Absorbance is read on a SpectraMax 250 (Molecular Devices) spectrophotometer at 490 nm. Data from the SpectraMax spectrophotometer are analyzed with GraphPad Prism 4.0. First, an averaged no cell control absorbance is subtracted from all other values in the matrix of data from each plate. Next, duplicate data points are averaged. Data are normalized for each Chk1 inhibitor concentration, with 0% cell number set as corrected A490=0, and 100% cell number set as the 0 nM gemcitabine mean value. […] Gemcitabine concentrations are converted to log concentrations, and normalized cell number values are converted to percent inhibition (percent inhibition=1.00-normalized value). Transformed data are plotted, and a non-linear regression is run to estimate an IC50 value for gemcitabine at each Chk1 inhibitor concentration. The nonlinear regression is calculated allowing the slope to vary, and without constraints for the top or bottom of the dose-response curves. The ECtfs value is calculated as follows: GI50 values for gemcitabine for each Chk1 inhibitor concentration are determined, plotted, and the concentration of Chk1 inhibitor necessary to decrease the gemcitabine alone GI50 by two-fold is determined by interpolation.
Compounds within the scope of the invention are tested in this assay run substantially as above. For example, the compound of Example 3 is tested and found to have an ECtfs value of 1.0 nM (SE=0.1, n=3). […]

recombinant Chk2 protein kinase, sequence (O96017 whole entry, the tested form may be a part): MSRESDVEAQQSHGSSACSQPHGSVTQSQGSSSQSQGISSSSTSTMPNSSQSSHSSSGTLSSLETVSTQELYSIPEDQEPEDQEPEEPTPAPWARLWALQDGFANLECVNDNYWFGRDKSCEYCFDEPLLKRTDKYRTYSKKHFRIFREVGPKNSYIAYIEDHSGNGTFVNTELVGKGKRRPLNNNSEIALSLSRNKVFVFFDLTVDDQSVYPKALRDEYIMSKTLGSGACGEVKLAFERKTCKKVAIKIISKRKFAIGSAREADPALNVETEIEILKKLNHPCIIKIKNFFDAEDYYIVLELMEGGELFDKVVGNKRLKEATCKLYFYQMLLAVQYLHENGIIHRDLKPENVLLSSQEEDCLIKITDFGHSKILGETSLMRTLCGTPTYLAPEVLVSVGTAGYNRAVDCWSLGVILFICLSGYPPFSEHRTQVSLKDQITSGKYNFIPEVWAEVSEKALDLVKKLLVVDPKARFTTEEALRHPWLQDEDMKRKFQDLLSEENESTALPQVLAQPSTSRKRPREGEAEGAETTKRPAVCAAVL

How did the IC50 [1] turn out when `COc1nc(C)ccc1-c1cc(Nc2cncc(O[C@@H]3CCCNC3)n2)[nH]n1` [Example 2, (R)-[5-(2-Methoxy-6-mcethyl-pyridin-3-yl)-2H-pyrazol-3-yl]-[6-(piperidin-3-yloxy)-pyrazin-2-yl]-amine methane sulfonic acid salt] was run?
Its IC50 is 12 nM.

And the EC50 (HeLa cells)?
Its EC50 is 33 nM.

Which “% TGI at day 37” value [2] does the source give for `Nc1ccn([C@@H]2O[C@H](CO)[C@@H](O)C2(F)F)c(=O)n1` [Gemcitabine, gemcitabine, reference compound] here?
Its value is 32%.

And the “% TGI at day 47” value [3]?
The value was −41%.

What about the “% TGI at day 38” value [4] of the same compound?
The value was 11%.

And the “% TGI at day 50” value [5]?
Its value is 25%.

What about the IC50 ([6]; [Example 3] 0 nM) of the same compound?
Its IC50 is 22 nM.

And the EC50 ([6]; gemcitabine alone)?
The EC50 was 22 nM.
